Results reported in US20120010075A1 (priority 2009, published 2012).
Like-named read-outs stand apart in the source and are kept apart here.

Tests used:
[1] = test system: Leptosphaeria nodorum (LEPTNO); assay: In vitro fungitoxicity of hydrazones with and without copper towards Leptosphaeria nodorum (Example 26); format: cell-based; conditions: 72 h at 25° C.
Phytophthora infestans = format: in vivo, Phytophthora infestans on tomato; conditions: applied 24 h before inoculation, assessed 7 days after inoculation
Phytophthora capsici = assay: In vitro fungitoxicity of hydrazones with and without copper towards Phytophthora capsici (Example 28, Table 3); format: cell-based; conditions: 48 h; for % Inhn Plus copper Observed: copper-plus AS medium (CuCl2, 50 μM)
[2] = Parastagonospora nodorum, 72 h, compound 0.05 μg/mL, copper-minus medium, read-out: LEPTNO % Inhn. Minus Copper Observed
[3] = compound 0.05 μg/mL, copper-plus medium (CuCl2.2H2O)
[4] = hydrazone 50 ppm + 50 μM CuCl2.2H2O, tomato
[5] = Phytophthora capsici, 0.039 μg/mL, copper-minus AS medium, read-out: % Inhn Minus copper Observed
[6] = Parastagonospora nodorum, 72 h, copper-minus medium, test compound Concn. 0.05 μg/mL, read-out: LEPTNO % Inhn. Minus Copper Observed
[7] = copper-plus medium (CuCl2 10 μM), test compound Concn. 0.05 μg/mL
[8] = hydrazone 50 ppm with 50 μM CuCl2.2H2O, tomato late blight

Structure (SMILES)	inhibition of growth at 0.05 µg/mL [1, 2]	LEPTNO % Inhn. Plus Copper Observed [1, 3]	TLB % Control (Phytophthora infestans; [4])	% Inhn Plus copper Observed (Phytophthora capsici; 0.039 μg/mL)	inhibition of growth at 0.039 µg/mL (Phytophthora capsici; [5])	melting point	other results
COc1ccc(O)c(/C=N/NC(=O)c2ccc(Cl)cc2)c1 [Example 207]	0%	95.3%	52.7%	88.9%	0%	–	–
CNc1ccccc1C(=O)N/N=C/c1ccccc1O [Example 3]	2.3%	93.0%	47.0%	88.5%	0%	–	–
Cc1ccc(/C=N/NC(=O)c2ccc(C(C)C)cc2)c(O)c1 [Example 14]	–	–	7.5%	87.2%	0%	–	inhibition of growth at 0.156 µg/mL ([1]; Parastagonospora nodorum, 72 h, compound 0.156 μg/mL, copper-minus medium, read-out: LEPTNO % Inhn. Minus Copper Observed): 2.9%; LEPTNO % Inhn. Plus Copper Observed ([1]; compound 0.156 μg/mL, copper-plus medium (CuCl2.2H2O)): 59.1%
O=C(N/N=C/c1ccccc1O)c1ccccc1O [Example 1]	0.7%	96.2%	64.0%	87.2%	9.7%	–	–
O=C(N/N=C/c1cc(I)cc(I)c1O)c1ccccc1 [Example 146]	0%	96.2%	71.2%	91.4%	11.8%	–	–
O=C(N/N=C/c1cc(Cl)cc(Cl)c1O)c1ccc(-c2ccccc2)cc1 [Example 74]	3%	95.7%	63.6%	–	–	–	% Inhn Plus copper Observed (Phytophthora capsici; 5 μg/mL): 89.4%; inhibition of growth at 5 µg/mL (Phytophthora capsici; Phytophthora capsici, 5 μg/mL, copper-minus AS medium, read-out: % Inhn Minus copper Observed): 17.2%
O=C(N/N=C/c1cc(Br)cc(Br)c1O)c1cccc(F)c1 [Example 119]	2.2%	95.7%	91.9%	95.1%	37.9%	–	–
Cc1ccc(C(=O)N/N=C/c2cc(Br)cc(Br)c2O)c(C)c1 [Example 28]	–	96.8%	62.7%	93.8%	11.4%	–	LEPTNO % Inhn. Minus Copper Observed ([1]; compound 0.05 μg/mL, copper-minus medium): 7.0%
O=C(CCc1cc(Br)c(O)c(Br)c1)N/N=C/c1cc(Cl)cc(Cl)c1O [Example 5]	4.8%	56.1%	22.0%	93.9%	18.6%	–	–
O=C(N/N=C/c1cc(Cl)cc(Cl)c1O)c1ccccc1F [Example 101]	7.8%	97.3%	85.3%	88.2%	70%	–	–
Nc1ccccc1C(=O)N/N=C/c1cc(Cl)cc(Cl)c1O [Example 91]	0%	79.3%	18.0%	93.2%	52.1%	–	–
O=C(Cc1ccccc1)N/N=C/c1cc(Cl)cc(Br)c1O [Example 210]	1.9%	94.1%	37.0%	92.7%	36.6%	–	–
O=C(Cc1ccccc1)N/N=C/c1cc(Br)cc(Br)c1O [Example 124]	0%	88.2%	23.0%	89.7%	25%	–	–
C=CCc1cccc(/C=N/NC(=O)c2ccccc2)c1O [Example 143]	2.1%	98.2%	64.4%	94.5%	6%	–	–
O=C(Cc1ccc(Cl)cc1)N/N=C/c1cc(Cl)cc(Cl)c1O [Example 123]	7.5%	95.5%	71.0%	94.8%	16.3%	–	–
O=C(N/N=C/c1ccccc1O)c1cccc(C(F)(F)F)c1 [Example 61]	3.8%	93.6%	60.0%	95.6%	17.6%	–	–
O=C(N/N=C/c1ccccc1O)c1cccc(Br)c1 [Example 182]	0%	97.6%	74.6%	90.9%	25.9%	–	–

Structure (SMILES)	inhibition of growth at 0.05 µg/mL [1, 2]	LEPTNO % Inhn. Plus Copper Observed [1, 3]	TLB % Control (Phytophthora infestans; [4])	% Inhn Plus copper Observed (Phytophthora capsici; 0.039 μg/mL)	inhibition of growth at 0.039 µg/mL (Phytophthora capsici; [5])	melting point	other results
O=C(N/N=C/c1ccccc1O)c1ccc(-c2ccccc2)cc1 [Example 183]	0%	96.7%	66.7%	88.9%	0%	–	–
O=C(N/N=C/c1cc(Cl)cc(Cl)c1O)c1ccc2c(c1)OCO2 [Example 6]	3.9%	96.4%	88.1%	95.8%	28.8%	–	–
C/C(=N\NC(=O)CCc1ccccc1)c1ccccc1O [Example 131]	0%	96.8%	62.0%	93.7%	5.6%	–	–
Oc1c(Cl)cc(Cl)cc1/C=N/NC(=S)c1ccccc1 [Example 52]	–	–	–	91.2%	40.6%	–	inhibition of growth at 0.2 µg/mL ([1]; Parastagonospora nodorum, 72 h, compound 0.2 μg/mL, copper-minus medium, read-out: LEPTNO % Inhn. Minus Copper Observed): 12.3%; LEPTNO % Inhn. Plus Copper Observed ([1]; compound 0.2 μg/mL, copper-plus medium (CuCl2.2H2O)): 96.4%
CCOc1ccc(C(=O)N/N=C/c2ccccc2O)cc1 [Example 21]	0.1%	94.1%	65.5%	90.0%	0%	–	–
O=C(N/N=C/c1cc(Cl)ccc1O)c1ccccc1C(F)(F)F [Example 422]	–	–	–	–	–	154 to 164 °C	inhibition of growth at 0.05 µg/mL [1, 6]: 0%; LEPTNO % Inhn. Plus Copper Observed [1, 7]: 95.5%; TLB % Control (Phytophthora infestans; [8]): 90.0%
O=C(N/N=C/c1ccc(Cl)cc1O)c1ccc([N+](=O)[O-])cc1 [Example 394]	–	–	–	–	–	278 to 281 °C	inhibition of growth at 0.05 µg/mL [1, 6]: 8%; LEPTNO % Inhn. Plus Copper Observed [1, 7]: 95.9%; TLB % Control (Phytophthora infestans; [8]): 71.0%
COc1cc(O)c(/C(C)=N/NC(=O)c2ccc(Cl)cc2)c(OC)c1 [Example 568]	–	–	–	–	–	136 to 140 °C	inhibition of growth at 0.05 µg/mL [1, 6]: 8%; LEPTNO % Inhn. Plus Copper Observed [1, 7]: 94.3%; TLB % Control (Phytophthora infestans; [8]): 61.0%
COc1ccc(/C(C)=N/NC(=O)c2ccc(C(F)(F)F)cc2)c(O)c1OC [Example 560]	–	–	–	–	–	229 to 233 °C	inhibition of growth at 0.05 µg/mL [1, 6]: 1.3%; LEPTNO % Inhn. Plus Copper Observed [1, 7]: 90.7%; TLB % Control (Phytophthora infestans; [8]): 65.0%
C/C(=N\NC(=O)c1ccccc1Br)c1cc(Cl)ccc1O [Example 514]	–	–	–	–	–	222 to 225 °C	inhibition of growth at 0.05 µg/mL [1, 6]: 0%; LEPTNO % Inhn. Plus Copper Observed [1, 7]: 97.7%; TLB % Control (Phytophthora infestans; [8]): 75.0%
CC/C(=N\NC(=O)c1ccccc1)c1cc(Cl)cc(Cl)c1O [Example 590]	–	–	–	–	–	214 to 215 °C	inhibition of growth at 0.05 µg/mL [1, 6]: 10%; LEPTNO % Inhn. Plus Copper Observed [1, 7]: 98.6%; TLB % Control (Phytophthora infestans; [8]): 88.0%
O=C(N/N=C/c1cc(C(F)(F)F)ccc1O)c1ccc([N+](=O)[O-])cc1 [Example 442]	–	–	–	–	–	259 to 265 °C	inhibition of growth at 0.05 µg/mL [1, 6]: 0%; LEPTNO % Inhn. Plus Copper Observed [1, 7]: 100.0%; TLB % Control (Phytophthora infestans; [8]): 98.0%
C/C(=N\NC(=O)c1ccccc1C)c1cc(Cl)ccc1O [Example 505]	–	–	–	–	–	192 to 193 °C	inhibition of growth at 0.05 µg/mL [1, 6]: 7.1%; LEPTNO % Inhn. Plus Copper Observed [1, 7]: 97.3%; TLB % Control (Phytophthora infestans; [8]): 46.0%
N#Cc1cccc(C(=O)N/N=C/c2cc(Cl)cc(Cl)c2O)c1 [Example 309]	–	–	–	–	–	252 to 271 °C	inhibition of growth at 0.05 µg/mL [1, 6]: 5.5%; LEPTNO % Inhn. Plus Copper Observed [1, 7]: 97.4%; TLB % Control (Phytophthora infestans; [8]): 74.0%
Cc1cc(C)cc(C(=O)N/N=C/c2ccccc2O)c1 [Example 167]	0%	95.8%	67.3%	–	–	203 to 205 °C	–
C/C(=N\NC(=O)c1cccc(Cl)c1)c1cccc(Cl)c1O [Example 497]	–	–	–	–	–	197 to 219 °C	inhibition of growth at 0.05 µg/mL [1, 6]: 0%; LEPTNO % Inhn. Plus Copper Observed [1, 7]: 98.1%; TLB % Control (Phytophthora infestans; [8]): 75.0%
O=C(Cc1ccccc1)N/N=C/c1cc(Cl)cc(Cl)c1O [Example 125]	2.4%	94.4%	87.0%	89.4%	66.6%	–	–
